The values below come from patent US11833144B2, “Treating autoimmune disease” (Mayo Foundation for Medical Education and Research, priority 2020, dated 2023).

SMILES strings stand for the structures.

One experiment deals with murine B cells. The experiment can be described thus: Murine B cell proliferation (CellTrace Violet, cell number) and class switch to IgG1 in vitro. The class given is cell-based, mouse. The method, then:
Mouse B cells were isolated from pooled single cell suspensions of spleen and peripheral lymph nodes using CD19 Microbeads (Miltenyi) or Mouse B cell Isolation Kit (Stemcell Technologies). B cells were stimulated with LPS (10 μg/mL; Sigma-Aldrich) and recombinant IL-4 cytokine (10 ng/mL; Tonbo Bioscience) with or without SCD inhibitor SSI-4, and proliferation was measured by dilution of CellTrace Violet proliferation dye (Thermo Fisher Scientific). B cells were also stimulated with anti-IgM (10 μg/mL; Jackson ImmunoResearch), anti-CD40 (10 μg/mL; BioXcell) and IL-4 (10 ng/mL; Tonbo Bioscience), or TLR ligand CpG (2.5 μM; IDT), recombinant IL-4 and IL-5 (10 ng/mL; Tonbo Bioscience) cytokines. To test the function of monounsaturated and saturated fatty acids, B cells were activated in presence of exogenous fatty acid-BSA conjugate. Palmitoleic acid (NU-CHEK PREP, INC), palmitic acid (NU-CHEK PREP, INC), stearic acid (NU-CHEK PREP, INC) were conjugated with fatty acid free BSA (Sigma-Aldrich) as described elsewhere (Wang et al., Immunity 35:871-882 (2011)). Human B cells were activated with CpG OND2006 (2.5 μM; IDT), recombinant human cytokine IL-10 ([…]; Peprotech), IL-15 (10 ng/mL; Peprotech), IL-4 (10 ng/mL; Biolegend), IL-2 (10 unit/mL) and anti-human CD40 (1 μg/mL; BioXcell). Human B cell proliferation was measured by ^3[H]-thymidine incorporation (1 μCi/mL) (American Radiolabeled Chemicals). For analysis of surface markers, cells were stained in PBS containing 1% (w/v) bovine serum albumin on ice for 30 minutes, with anti-IgG1 (RMG1-1, Biolegend), anti-CD19 (ID3, Biolegend) anti-B220 (RA3-6B2, Biolegend), anti-CD4 (GK1.5, Biolegend), anti-CD8 (53-6.7, Biolegend), anti-CD25 (PC16, Biolegend), anti-GL7 (GL-7, Biolegend), anti-CD95 (Jo2, BD Biosciences), anti-CD138 (281-2, Biolegend), anti-IgD (11-26c.2a, Biolegend), anti-PD-1 (J43, ThermoFisher), anti-IgM (II/41, ThermoFisher). Antigen specific GC response was detected with tetramer NP-phycoerythrin conjugated with PE (Biosearch Technologies). CXCR5 was stained with biotinylated anti-CXCR5 (2G8) followed by staining with streptavidin-conjugated PE (both from BD Biosciences). Cell viability was assessed using the Fixable Dye Ghost 510 (Tonbo Bioscience) or Annexin V cell apoptosis kit with 7-AAD (ThermoFisher) following the manufacturer's protocol. Phosflow staining for phospho-S6 (S235/236) was performed using Phosflow Fix/Perm kit (BD Biosciences). Mitochondrial potential was measured by staining with 20 nM TMRM (ThermoFisher) following manufacturer's instructions. Flow cytometry was performed on the LSR II, LSR Fortessa (BD Biosciences) or Attune NxT (ThermoFisher) cytometers, and analysis was performed using FlowJo software (Tree Star).

The test system of a further experiment is GFP-LC3. Description: Flow cytometry of GFP-LC3 in activated B cells from GFP-LC3 reporter mouse. The class given is cell-based. To be noted: SSI-4 ex vivo. On the procedure:
For analysis of surface markers, cells were stained in PBS containing 1% (w/v) bovine serum albumin on ice for 30 minutes, with anti-IgG1 (RMG1-1, Biolegend), anti-CD19 (ID3, Biolegend) anti-B220 (RA3-6B2, Biolegend), anti-CD4 (GK1.5, Biolegend), anti-CD8 (53-6.7, Biolegend), anti-CD25 (PC16, Biolegend), anti-GL7 (GL-7, Biolegend), anti-CD95 (Jo2, BD Biosciences), anti-CD138 (281-2, Biolegend), anti-IgD (11-26c.2a, Biolegend), anti-PD-1 (J43, ThermoFisher), anti-IgM (II/41, ThermoFisher). Antigen specific GC response was detected with tetramer NP-phycoerythrin conjugated with PE (Biosearch Technologies). CXCR5 was stained with biotinylated anti-CXCR5 (2G8) followed by staining with streptavidin-conjugated PE (both from BD Biosciences). Cell viability was assessed using the Fixable Dye Ghost 510 (Tonbo Bioscience) or Annexin V cell apoptosis kit with 7-AAD (ThermoFisher) following the manufacturer's protocol. Phosflow staining for phospho-S6 (S235/236) was performed using Phosflow Fix/Perm kit (BD Biosciences). Mitochondrial potential was measured by staining with 20 nM TMRM (ThermoFisher) following manufacturer's instructions. Flow cytometry was performed on the LSR II, LSR Fortessa (BD Biosciences) or Attune NxT (ThermoFisher) cytometers, and analysis was performed using FlowJo software (Tree Star).
(In general: A flow cytometer gives signals particle by particle.)

The subject of another experiment is activated human B cells. Description: Seahorse OCR / ECAR in activated human B cells. The experiment is classed as cell-based. The method, then: The bioenergetic activities of the OCR and ECAR were measured using a Seahorse XFe96 Extracellular Flux Analyzed following established protocols (Agilent). Briefly, B cells were seeded at 200,000 cells/well on Cell-Tak (Corning) coated XFe96 plate with fresh XF media (Seahorse XF RPMI medium containing 10 mM glucose, 2 mM L-glutamine, and 1 mM sodium pyruvate, PH 7.4; all reagents from Agilent). OCR was measured in the presence of Oligomycin (1.5 μM; Sigma-Aldrich), FCCP (1.5 μM; Sigma-Aldrich), and Rotenone (1 μM; Sigma-Aldrich)/Antimycin A (1 μM; Sigma-Aldrich) in Mito Stress assay. For ECAR measurement, B cells were seeded in XFe96 plate with fresh Seahorse XF RPMI medium with 2 mM L-glutamine (PH 7.4), and treated with glucose (10 mM; Agilent), Oligomycin (1.5 and 2-DG (50 mM; Sigma-Aldrich) orderly in Glycolysis Stress assay.

Setting [1] is: LPS/IL-4 activated, fatty acid-BSA conjugate, no inhibitor.

In the case of `CNC(=O)c1ccnc(NC(=O)N2CCC(Oc3ccccc3Cl)CC2)c1` [SSI-4, 2-{[4-(2-Chlorophenoxy)piperidine-1-carbonyl]amino}-N-methylpyridine-4-carboxamide], the IgG1 class switch entry in the experiment on murine B cells (LPS/IL-4, SCD inhibitor SSI-4 alone) is “strongly suppressed”. Further, in the experiment on murine B cells (LPS/IL-4 activated, SCD inhibitor alone), the “proliferation of mouse B cells (CTV dilution)” value is given as “capable of inhibiting B cell proliferation”. The “GFP-LC3 expression (MFI)” value in the experiment with GFP-LC3 was “higher LC3 expression”.
Consider `CCCCCCCC/C=C\CCCCCCCC(=O)O` [OA, oleic acid], for which, in the experiment with murine B cells (100 nM SSI-4 plus exogenous 100 μM OA, 3 days, LPS/IL-4/IL-5, anti-IgM/anti-CD40/IL-4 or CpG/IL-4/IL-5), the “rescue of proliferation defects caused by SCD inhibition” value is “able to rescue the proliferation defects”. Moreover, in the experiment on murine B cells (B cells from Scd1 and Scd2 deficient mice, LPS/IL-4), the “rescue of proliferation and IgG1 class switch in SCD1/2 deficient B cells” value is “fully restored”. Besides, in the experiment on murine B cells (LPS/IL-4, SSI-4 with exogenous fatty acid), the “rescue of proliferation and IgG1 class switch upon SSI-4 treatment” value is recorded as “fully restore both parameters”. Further, in the experiment on murine B cells (setting [1]), the “B cell proliferation, exogenous fatty acid alone” value is on record as “further enhanced” and the “IgG1 class switch, exogenous fatty acid alone” value is “further enhanced”. Further, the “human B cell glycolysis (ECAR)” value with activated human B cells (exogenous OA, 72 h) is given as “improved human B cell glycolysis”. The “respiration (OCR) in activated human B cells” value with activated human B cells (exogenous fatty acid, 72 hours) is listed as “augmented respiration”.
